Assay results: patent US7179926B2, “Aryloxyalkylamine NK-1/SSRI inhibitors” (Bristol-Myers Squibb Company, priority 2004, dated 2007)
pIC50: −log10 of the molar value.

Tests used:
[1] = biological target: T1, neurokinin-1 (NK-1) receptor (Homo sapiens, UniProt P25103); assay: NK-1 Binding assay ([125I] Substance P competition, U373 cell membranes); conditions: Bolton Hunter labeled [125I] Substance P, 30 min at 20° C.
T1 construct: endogenously expresses the neurokinin-1 (NK-1) receptor; endogenous in cells; host or cells: U373 human glioblastoma-astrocytoma cells (membranes)
T1 sequence (P25103 whole entry): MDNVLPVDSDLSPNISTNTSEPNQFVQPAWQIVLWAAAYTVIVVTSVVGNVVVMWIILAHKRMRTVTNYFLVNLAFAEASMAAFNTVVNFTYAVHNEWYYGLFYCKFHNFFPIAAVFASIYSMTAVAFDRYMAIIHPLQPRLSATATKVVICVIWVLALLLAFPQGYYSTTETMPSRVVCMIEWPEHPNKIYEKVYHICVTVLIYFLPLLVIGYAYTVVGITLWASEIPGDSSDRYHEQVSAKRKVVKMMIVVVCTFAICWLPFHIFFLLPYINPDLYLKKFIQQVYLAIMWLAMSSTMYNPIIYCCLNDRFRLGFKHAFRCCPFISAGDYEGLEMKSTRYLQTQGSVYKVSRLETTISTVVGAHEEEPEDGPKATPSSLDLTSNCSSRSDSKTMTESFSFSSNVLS
Experimental: NK-1 Binding assay. U373 cells, a human glioblastoma-astrocytoma cell line that endogenously expresses the neurokinin-1 (NK-1) receptor, were grown in a monolayer culture at 37° C. in 5% CO2 and fed with Minimum Essential Medium (MEM) supplemented with 10% fetal bovine serum. Membranes were prepared as follows: Cells were washed twice with ice-cold phosphate-buffered saline (pH 7.4) and then incubated for 5–10 minutes with ice-cold 10 mM Tris buffer (pH 7.4) containing 5 mM EDTA. Cells were removed from plates, homogenized, and centrifuged at 32,000×g for 20 minutes. The resulting supernatant was discarded, and the pellet resuspended by homogenization in 50 mM Tris buffer (pH 7.4) containing 1 mM EDTA and centrifuged at 32,000×g for 20 minutes. The resulting supernatant was discarded, and the pellet resuspended by homogenization in NK-1 binding assay buffer (50 mM Tris-HCL (pH 7.4), 3 mM MnCl2, 200 μg/ml BSA, 5 μg/ml chymostatin, 40 μg/ml bacitracin and 4 μg/ml leupeptin).
On the day of an experiment the membrane preparation was thawed, homogenized and diluted with NK-1 binding assay buffer to the appropriate concentration. Competition binding assays were performed in 96 well plate format by incubating membranes (5–10 μg/well) with Bolton Hunter labeled [^125I] Substance P, at a concentration of […], and concentrations of drugs ranging from 10000 to 0.01 nM. Samples were incubated for 30 min at 20° C. then filtered through GF/B glass fiber filters (pretreated with 1% polyethyleneimine and 0.3% Triton X-100) using a Brandel cell harvester. The filters were then washed with 10 ml ice cold 50 mM Tris-HCL (pH 7.4) containing 3 mM MgCl2. Non-specific was defined in the presence of 2 μM L-733,060 (a non-peptide NK-1 antagonist). The amount of radioligand bound in the presence and absence of competitor was analyzed by plotting (−)log drug concentration versus the amount of radioligand specifically bound. The midpoint of the displacement curve (IC50, nM), signifies the potency. Ki values can be calculated using the method of Cheng and Prusoff (Cheng and Prusoff, Biochemical Pharmacology, Vol 22, pp. 3099–3108, Pergamon Press (1973)).

[2] = biological target: T2, human serotonin transporters (Homo sapiens, UniProt P31645); assay: Serotonin transporter binding assay ([3H]-citalopram competition, HEK-hSERT cell membranes); conditions: 1 nM [3H]-citalopram, 1 hr at 25° C., read-out: SERT IC50
T2 construct: expressed in transfected cells
T2 sequence (P31645 whole entry): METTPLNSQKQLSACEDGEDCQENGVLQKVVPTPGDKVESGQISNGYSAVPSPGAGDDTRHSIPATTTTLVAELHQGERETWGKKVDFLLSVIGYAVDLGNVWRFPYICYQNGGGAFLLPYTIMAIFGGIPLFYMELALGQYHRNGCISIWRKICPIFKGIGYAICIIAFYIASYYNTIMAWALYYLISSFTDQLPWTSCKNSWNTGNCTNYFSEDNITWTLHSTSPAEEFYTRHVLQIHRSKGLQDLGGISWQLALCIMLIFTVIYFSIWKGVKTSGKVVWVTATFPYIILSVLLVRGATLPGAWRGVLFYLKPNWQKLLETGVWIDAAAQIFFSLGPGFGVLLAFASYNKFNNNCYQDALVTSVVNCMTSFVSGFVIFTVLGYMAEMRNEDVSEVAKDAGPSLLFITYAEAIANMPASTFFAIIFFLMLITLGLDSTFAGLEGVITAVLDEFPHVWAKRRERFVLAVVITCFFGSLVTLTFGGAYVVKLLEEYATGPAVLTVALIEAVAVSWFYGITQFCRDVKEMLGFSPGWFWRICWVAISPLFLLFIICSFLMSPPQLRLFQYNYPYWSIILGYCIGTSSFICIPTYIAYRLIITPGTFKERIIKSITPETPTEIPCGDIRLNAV
Experimental: Serotonin transporter binding assay. HEK-293 cells that stably express human serotonin transporters (HEK-hSERT cells) were grown at 37° C. in 5% CO2 as a monolayer in medium consisting of EMEM supplemented with 10% fetal bovine serum and G418 sulfate (500 μg/ml). To prepare membranes for radioligand binding experiments, cells were rinsed twice with phosphate-buffered saline (138 mM NaCl, 4.1 mM KCl, 5.1 mM Na2PO4, 1.5 mM KH2PO4, 11.1 mM glucose, pH 7.4). Cells were transferred from plates to polypropylene tubes (16×100 mm), centrifuged at 1,200×g for 5 min and were frozen at −80° C. until assay. Following centrifugation, pellets were resuspended by homogenization in buffer consisting of 50 mM Tris (pH 7.7 at 25° C.), 120 mM NaCl and 5 mM KCl and then centrifuged at 32,000×g for 10 min. Following centrifugation, supernatants were discarded and pellets were resuspended in buffer consisting of 50 mM Tris (pH 7.4 at 25° C.), 150 mM NaCl and 5 mM KCl. Membrane homogenates (200 μl/plate) were incubated with 1 nM [^3H]-citalopram (specific activity=85 Ci/mmol) and increasing concentrations of test compounds for 1 hr at 25° C. in a total volume of 250 μl. The assay buffer consisted of 50 mM Tris (pH 7.4 at 25° C.), 120 mM NaCl and 5 mM KCl (pH 7.4 with conc. HCl). Plates were incubated for 1 hr at 25° C., then filtered through 0.5% PEI treated Whatman GF/B filters using a Brandel cell harvester. Filters were washed three times with 3 ml of ice-cold tris wash buffer. Non-specific binding was defined with 10 μM fluoxetine. Amount of radioligand bound in the presence and absence of competitor was analyzed by plotting (−)log drug concentration versus the amount of radioligand specifically bound. The midpoint of the displacement curve (IC50, nM), signifies the potency. Ki values can be calculated using the method of Cheng and Prusoff (Cheng and Prusoff, Biochemical Pharmacology, Vol 22, pp. 3099–3108, Pergamon Press (1973)).

SMILES | pIC50 [1] | pIC50 [2]
NCCC(O)(COCc1ccccc1F)c1ccccc1 (stereo not drawn) [Example 57, 1-(2-fluorobenzyloxy)-4-amino-2-phenylbutan-2-ol] | < 6.52 | < 6.52
NCCC(O)(COCc1cc(C(F)(F)F)cc(C(F)(F)F)c1)c1ccc2ccccc2c1 (stereo not drawn) [Example 11, 1-(3,5-bis(trifluoromethyl)benzyloxy)-4-amino-2-(naphthalen-2-yl)butan-2-ol] | 6.52 to 7.00 | 7.00 to 9.00
NCCC(O)(COCc1ccccc1Br)c1ccccc1 (stereo not drawn) [Example 52, 1-(2-bromobenzyloxy)-4-amino-2-phenylbutan-2-ol] | < 6.52 | 7.00 to 9.00
NCCC(O)(COCc1cccc(F)c1)c1ccccc1 (stereo not drawn) [Example 58, 1-(3-fluorobenzyloxy)-4-amino-2-phenylbutan-2-ol] | < 6.52 | 6.52 to 7.00
NCCC(O)(COCc1cccc(Cl)c1)c1ccccc1 (stereo not drawn) [Example 65, 1-(3-chlorobenzyloxy)-4-amino-2-phenylbutan-2-ol] | < 6.52 | 7.00 to 9.00
NCCC(O)(COCc1ccccc1)c1ccccc1 (stereo not drawn) [Example 47, 4-amino-1-(benzyloxy)-2-phenylbutan-2-ol] | < 6.52 | < 6.52
NCCC(O)(COCc1cccc(Br)c1)c1ccccc1 (stereo not drawn) [Example 48, 1-(3-bromobenzyloxy)-4-amino-2-phenylbutan-2-ol] | < 6.52 | 7.00 to 9.00
COc1cccc(COCC(O)(CCN)c2ccccc2)c1 (stereo not drawn) [Example 63, 1-(3-methoxybenzyloxy)-4-amino-2-phenylbutan-2-ol] | < 6.52 | 7.00 to 9.00
NCCC(O)(COCc1ccccc1Cl)c1ccccc1 (stereo not drawn) [Example 50, 1-(2-chlorobenzyloxy)-4-amino-2-phenylbutan-2-ol] | < 6.52 | 7.00 to 9.00
NCCC(O)(COCc1cc(F)cc(F)c1)c1ccccc1 (stereo not drawn) [Example 64, 1-(3,5-difluorobenzyloxy)-4-amino-2-phenylbutan-2-ol] | 6.52 to 7.00 | 7.00 to 9.00
Cc1ccccc1COCC(O)(CCN)c1ccccc1 (stereo not drawn) [Example 67, 1-(2-methylbenzyloxy)-4-amino-2-phenylbutan-2-ol] | < 6.52 | 6.52 to 7.00

Results, then the compound that gave them:

pIC50 [1] | pIC50 [2] | SMILES
7.00 to 9.00 | 7.00 to 9.00 | CNCCC(COCc1cc(C(F)(F)F)cc(C(F)(F)F)c1)c1ccccc1 (stereo not drawn) [Example 72, 1-(3,5-bis(trifluoromethyl)benzyloxy)-4-methylamino-2-phenylbutane]
7.00 to 9.00 | 7.00 to 9.00 | NCCC(O)(COCc1cc(C(F)(F)F)cc(C(F)(F)F)c1)c1ccc(Cl)cc1 (stereo not drawn) [Example 42, 1-(3,5-bis(trifluoromethyl)benzyloxy)-4-amino-2-(4-chlorophenyl)butan-2-ol]
7.00 to 9.00 | 7.00 to 9.00 | NCCC(O)(COCc1cc(C(F)(F)F)cc(C(F)(F)F)c1)c1cccc(F)c1 (stereo not drawn) [Example 12, 1-(3,5-bis(trifluoromethyl)benzyloxy)-4-amino-2-(3-fluorophenyl)butan-2-ol]
7.00 to 9.00 | 7.00 to 9.00 | COc1ccc(C(O)(CCN)COCc2cc(C(F)(F)F)cc(C(F)(F)F)c2)cc1F (stereo not drawn) [Example 23, 1-(3,5-bis(trifluoromethyl)benzyloxy)-4-amino-2-(3-fluoro-4-methoxyphenyl)butan-2-ol]
7.00 to 9.00 | 7.00 to 9.00 | Cc1cc(F)ccc1C(O)(CCN)COCc1cc(C(F)(F)F)cc(C(F)(F)F)c1 (stereo not drawn) [Example 31, 1-(3,5-bis(trifluoromethyl)benzyloxy)-4-amino-2-(4-fluoro-2-methylphenyl)butan-2-ol]
7.00 to 9.00 | 7.00 to 9.00 | NCCC(O)(COCc1cc(C(F)(F)F)cc(C(F)(F)F)c1)c1cccc(Cl)c1 (stereo not drawn) [Example 21, 1-(3,5-bis(trifluoromethyl)benzyloxy)-4-amino-2-(3-chlorophenyl)butan-2-ol]
7.00 to 9.00 | < 6.52 | CN(C)CCC(O)(COCc1cc(C(F)(F)F)cc(C(F)(F)F)c1)c1ccccc1 (stereo not drawn) [Example 5, 1-(3,5-bis(trifluoromethyl)benzyloxy)-4-(dimethylamino)-2-phenylbutan-2-ol]
7.00 to 9.00 | 7.00 to 9.00 | NCCC(O)(COCc1cc(Cl)cc(Cl)c1)c1ccccc1 (stereo not drawn) [Example 61, 1-(3,5-dichlorobenzyloxy)-4-amino-2-phenylbutan-2-ol]
7.00 to 9.00 | 6.52 to 7.00 | CN(C)CC(O)(COCc1cc(C(F)(F)F)cc(C(F)(F)F)c1)c1ccccc1 (stereo not drawn) [Example 1, 1-(3,5-bis(trifluoromethyl)benzyloxy)-3-(dimethylamino)-2-phenylpropan-2-ol]
7.00 to 9.00 | 7.00 to 9.00 | NCCC(O)(COCc1cc(C(F)(F)F)cc(C(F)(F)F)c1)c1cccs1 (stereo not drawn) [Example 44, 1-(3,5-bis(trifluoromethyl)benzyloxy)-4-amino-2-(thiophen-2-yl)butan-2-ol]
7.00 to 9.00 | 7.00 to 9.00 | NCCC(O)(COCc1cc(C(F)(F)F)cc(C(F)(F)F)c1)c1ccc(F)cc1 (stereo not drawn) [Example 41, 1-(3,5-bis(trifluoromethyl)benzyloxy)-4-amino-2-(4-fluorophenyl)butan-2-ol]
7.00 to 9.00 | 6.52 to 7.00 | NCCC(O)(COCc1cc(C(F)(F)F)cc(C(F)(F)F)c1)c1cc(F)cc(Cl)c1 (stereo not drawn) [Example 24, 1-(3,5-bis(trifluoromethyl)benzyloxy)-4-amino-2-(3-chloro-5-fluorophenyl)butan-2-ol]
7.00 to 9.00 | 7.00 to 9.00 | Cc1ccccc1C(O)(CCN)COCc1cc(C(F)(F)F)cc(C(F)(F)F)c1 (stereo not drawn) [Example 43, 1-(3,5-bis(trifluoromethyl)benzyloxy)-4-amino-2-o-tolylbutan-2-ol]
